The text below walks through data of ChEMBL document CHEMBL2074150, “Nucleotide binding and nucleotide hydrolysis properties of the ABC transporter MRP6 (ABCC6)” (Biochemistry, 2002).

Common to all, as to type: functional, cell membranes, Membrane
Holding throughout (conditions): komagataella pastoris

The target of data set [1] is T1, ATP-binding cassette sub-family C member 6 (Rattus norvegicus, UniProt O88269). As to the kind of experiment: TP_TRANSPORTER: inhibition of photolabeling by IAARh123 (IAARh123: 1 uM, DOX: 1000 uM) in membranes from Mrp6-expressing P. pastoris.
The target in data set [2] is T1, ATP-binding cassette sub-family C member 6. As to the kind of experiment: TP_TRANSPORTER: inhibition of photolabeling by IAARh123 (IAARh123: 1 uM, VP-16: 1000 uM) in membranes from Mrp6-expressing P. pastoris.
Data set [3] has the same target. Briefly: TP_TRANSPORTER: inhibition of photolabeling by IAARh123 (IAARh123: 1 uM, LTC4: 300 uM) in membranes from Mrp6-expressing P. pastoris.
The target is the same in data set [4]. Briefly: TP_TRANSPORTER: inhibition of photolabeling by IAARh123 (IAARh123: 1 uM, K571: 1000 uM) in membranes from Mrp6-expressing P. pastoris.
Data set [5] shares this target. As to the kind of experiment: TP_TRANSPORTER: inhibition of photolabeling by IAARh123 (IAARh123: 1 uM, VBL: 1000 uM) in membranes from Mrp6-expressing P. pastoris.

T1 sequence (O88269 whole entry): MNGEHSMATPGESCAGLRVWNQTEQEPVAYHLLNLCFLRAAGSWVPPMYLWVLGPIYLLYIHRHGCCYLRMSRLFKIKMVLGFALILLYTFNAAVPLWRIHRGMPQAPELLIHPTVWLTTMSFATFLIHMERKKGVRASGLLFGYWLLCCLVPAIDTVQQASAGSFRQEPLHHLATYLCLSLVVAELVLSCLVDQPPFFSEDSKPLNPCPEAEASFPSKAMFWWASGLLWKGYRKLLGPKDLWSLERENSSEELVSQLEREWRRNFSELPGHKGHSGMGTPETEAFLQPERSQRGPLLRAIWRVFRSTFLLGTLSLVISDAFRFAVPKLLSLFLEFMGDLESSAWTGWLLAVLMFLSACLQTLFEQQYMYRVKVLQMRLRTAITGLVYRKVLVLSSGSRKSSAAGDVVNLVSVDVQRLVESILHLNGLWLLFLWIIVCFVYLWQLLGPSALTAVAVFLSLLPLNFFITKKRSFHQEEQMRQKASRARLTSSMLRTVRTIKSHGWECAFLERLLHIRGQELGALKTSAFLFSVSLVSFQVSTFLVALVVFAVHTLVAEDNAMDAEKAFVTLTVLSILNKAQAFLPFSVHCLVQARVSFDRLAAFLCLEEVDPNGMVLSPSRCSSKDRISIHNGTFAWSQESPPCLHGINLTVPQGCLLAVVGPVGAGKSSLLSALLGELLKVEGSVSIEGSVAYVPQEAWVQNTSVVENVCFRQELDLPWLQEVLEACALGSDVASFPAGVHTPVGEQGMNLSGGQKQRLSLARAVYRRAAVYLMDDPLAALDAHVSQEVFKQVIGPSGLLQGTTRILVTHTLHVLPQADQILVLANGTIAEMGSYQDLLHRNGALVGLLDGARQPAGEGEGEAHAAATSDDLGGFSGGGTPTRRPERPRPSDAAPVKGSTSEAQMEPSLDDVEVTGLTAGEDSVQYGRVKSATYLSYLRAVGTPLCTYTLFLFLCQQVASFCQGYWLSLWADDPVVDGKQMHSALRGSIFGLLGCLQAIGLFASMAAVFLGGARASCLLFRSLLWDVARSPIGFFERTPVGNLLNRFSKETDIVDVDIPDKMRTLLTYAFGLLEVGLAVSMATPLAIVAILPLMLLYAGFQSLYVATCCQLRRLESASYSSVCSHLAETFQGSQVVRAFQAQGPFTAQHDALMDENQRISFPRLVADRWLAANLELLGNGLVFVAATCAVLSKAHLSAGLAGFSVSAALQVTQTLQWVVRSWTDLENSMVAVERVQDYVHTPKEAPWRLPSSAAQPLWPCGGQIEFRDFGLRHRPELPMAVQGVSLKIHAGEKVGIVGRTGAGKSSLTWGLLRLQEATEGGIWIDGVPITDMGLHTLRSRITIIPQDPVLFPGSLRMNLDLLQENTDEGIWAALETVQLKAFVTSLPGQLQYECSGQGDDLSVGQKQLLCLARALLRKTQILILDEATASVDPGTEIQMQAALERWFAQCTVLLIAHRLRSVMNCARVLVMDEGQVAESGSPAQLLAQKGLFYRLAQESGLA

In the case of `COc1cccc2c1C(=O)c1c(O)c3c(c(O)c1C2=O)C[C@@](O)(C(=O)CO)C[C@@H]3O[C@H]1C[C@H](N)[C@H](O)[C@H](C)O1` [DOXORUBICIN], in data set [1], the Activity entry was “inhibitor [(at a rough estimate) 55 % of control]”.

For `COc1cc([C@@H]2c3cc4c(cc3[C@@H](O[C@@H]3O[C@@H]5CO[C@@H](C)O[C@H]5[C@H](O)[C@H]3O)[C@H]3COC(=O)[C@H]23)OCO4)cc(OC)c1O` [ETOPOSIDE], the Activity entry in data set [2] was “is not an inhibitor [-]”. Take `CCCCC/C=C\C\C=C/C=C/C=C/[C@@H](SC[C@@H](NC(=O)CC[C@H](N)C(=O)O)C(=O)NCC(=O)O)[C@@H](O)CCCC(=O)O` [LEUKOTRIEN C4]: the Activity result in data set [3] was “is not an inhibitor [-]”. For the compound `CN(C)C(=O)CCSC(SCCC(=O)O)c1cccc(/C=C/c2ccc3ccc(Cl)cc3n2)c1` (stereo not given) [MK-571], the Activity entry in data set [4] is “inhibitor [(at a rough estimate) 60 % of control]”. As for `CC[C@]1(O)C[C@@H]2CN(CCc3c([nH]c4ccccc34)[C@@](C(=O)OC)(c3cc4c(cc3OC)N(C)[C@H]3[C@@](O)(C(=O)OC)[C@H](OC(C)=O)[C@]5(CC)C=CCN6CC[C@]43[C@@H]65)C2)C1` [VINBLASTINE], in data set [5], the Activity result is “inhibitor [(at a rough estimate) 55 % of control]”.
